The target in data set [1] is T1, S2R (Homo sapiens, UniProt Q5BJF2).
T1 construct: host or cells: Jurkat cell membranes
As to the kind of experiment: S2R binding assay, [3H]-DTG, Jurkat cell membranes. Here is the method: The binding assays were performed by Eurofins Cerep (Poitiers, France) according to Ganapathy. Briefly, S1R)binding assay was carried out by incubating Jurkat cell membranes ([…] protein per tube) with [^3H] (+)-pentazocine (15 nM) and a range of concentrations of test compounds at 37 °C for 2 h in 5 mM Tris HCl buffer (pH = 7.4). The S2R binding assay was performed by incubating Jurkat cell membranes ([…] protein per tube) with [^3H]-DTG (25 nM) in the presence of (+)-pentazocine (1 mM), to saturate S1R, and a range of concentrations of test compounds at room temperature for 1 h in 5 mM Tris HCl buffer (pH = 7.4). Bound radioactivity was measured using liquid scintillation counting. Nonspecific binding was determined in both assays, under similar conditions, as remaining in the presence of […] unlabeled haloperidol. Inhibition constants (Ki) were calculated from the IC50 values according to the method of Cheng and Prusoff.

Data set [2] has as its system human peripheral blood mononuclear cells (hPBMCs). The experiment in a line: Immunotoxicity, immunophenotyping by flow cytometry. The data set is classed as cell-based. The note with it: 10 µM, 48 h. The procedure: Immunotoxicity analysis was performed by Immune Insight CRO (Lille, France) on human peripheral blood mononuclear cells (hPBMCs) from six individual healthy donors. hPBMCs were either non-stimulated (basal) or stimulated using E. coli lipopolysaccharide (LPS, Sigma Aldrich, St. Louis, MO, USA) at 100 ng/mL. hPBMCs were activated with plate-bound anti-CD3 (10 ng/mL) monoclonal antibody (mAb) and incubated at 37 °C for 2 h before the culture and soluble anti-CD28 (10 ng/mL) mAb (Clinisciences, Montrouge, France) were added. Compound 7i was tested at 10 µM. The quality of hPBMC activation was controlled using cytometric analysis based on CD25 staining and proliferation assays based on ^3H-thymidine incorporation. Immune cell subpopulations were immunophenotyped among hPBMCs by flow cytometry on an Attune NxT (Thermofisher Scientific Inc. Waltham, MA, USA). Analyses were performed at 48 h post treatment. The expression of B, CD4, CD8, Th17 and Treg lymphocyte surface antigens was tested using monoclonal mouse anti-human Ab (Miltenyi Biotec SAS, Paris, France) (Table 9). […]
Background: A flow cytometer gives signals particle by particle.

Data set [3] addresses T2, S1R (Homo sapiens, UniProt Q99720).
T2 construct: host or cells: Jurkat cell membranes
Also noted: method as in PMID 28756263. Particulars: selectivity index; cited from earlier work.

Data set [4] has as its system 40 different receptors relevant to CNS disease. Set-up: method as in PMID 28756263. The note with it: 40 receptors relevant to CNS disease; cited from earlier work.
For data set [5], the system named is dizocilpine-induced learning deficits. As to the kind of experiment: Dizocilpine-induced learning deficits, step-through passive avoidance. The data set is classed as in vivo, male Swiss mice. Here is the method:
The activity of compound 7i was evaluated in regard to its ability to reverse dizocilpine-induced learning deficits. Two behavioral tests were performed by Amylgen (Montferrier-sur-Lez, France) on male Swiss mice (aged 6–9 weeks). All compounds (7i and controls) were intraperitoneally injected.
Animals were tested for spontaneous alternation performance in the Y-maze, an index of spatial working memory. Made of grey polyvinylchloride, the Y-maze has an arm which is 40 cm long, 13 cm high and 3 cm wide at the bottom and 10 cm wide at the top, converging at an equal angle. Each mouse was placed at the end of one arm and allowed to move freely through the maze during an 8-min session. The series of arm entries, including possible returns into the same arm, were checked visually. An alternation was defined as entries into all three arms on consecutive occasions. The number of maximum alternations was therefore the total number of arm entries minus two, and the percentage of alternation was calculated as: (actual alternations/maximum alternations) × 100. Parameters included the percentage of alternation (memory index) and the total number of arm entries (exploration index). Animals showing extreme behavior (alternation < 20% or >90% or number of arm entries < 10) are usually discarded from the calculations. […] Step-through latency (the latency in time spent to enter the dark compartment) and the number of vocalizations were recorded. […] Step-through latency was recorded up to 300 s. When either the mouse entered the dark compartment or 300 s had elapsed (they were therefore manually placed in it), escape latency (latency to exit from the dark compartment) was recorded with a value of up to 300 s. […]

Data set [6] concerns experimental autoimmune encephalomyelitis (EAE). The experiment in a line: Relapsing EAE (PLP 139-151), curative protocol. The data set is classed as in vivo, female SJL/J mice.

Consider 2 molecules from PMC9569529, “Safe and Efficient Sigma1 Ligand: A Potential Drug Candidate for Multiple Sclerosis” (International Journal of Molecular Sciences, 2022).

SMILES strings stand for the structures.

T1 sequence (Q5BJF2 whole entry): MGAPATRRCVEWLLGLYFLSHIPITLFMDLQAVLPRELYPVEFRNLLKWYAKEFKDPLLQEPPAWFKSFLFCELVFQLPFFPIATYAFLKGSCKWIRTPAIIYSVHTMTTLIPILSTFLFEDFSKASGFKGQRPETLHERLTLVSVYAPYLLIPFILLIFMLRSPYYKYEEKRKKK
T2 sequence (Q99720 whole entry): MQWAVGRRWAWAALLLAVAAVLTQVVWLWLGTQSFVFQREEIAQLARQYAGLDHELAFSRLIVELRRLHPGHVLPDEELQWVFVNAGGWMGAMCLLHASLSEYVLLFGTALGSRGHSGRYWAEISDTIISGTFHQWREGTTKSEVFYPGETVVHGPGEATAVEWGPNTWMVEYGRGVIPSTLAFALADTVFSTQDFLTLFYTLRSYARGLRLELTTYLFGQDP

By Ki is commonly meant a measure of affinity in units of concentration, obtained from inhibition or displacement. Take `O=C(NCCCNCc1ccccc1)c1ccc(Cl)cc1` [compound 7i-deMe]: in data set [1], the Ki was more than 1 µM.

With `CN(CCCNC(=O)c1ccc(Cl)cc1)Cc1ccccc1` [compound 7i], the “effect on percentage of B, Th17, CD4 and CD8 T lymphocyte subpopulations and regulatory T cells” value in data set [2] (basal non-stimulating conditions) is given as “no effect”. The “toxicity on immune subpopulations” value in data set [2] (stimulating or not stimulating conditions) is “no toxicity effect”. Besides, the “Ki Ratio S2R/S1R” value in data set [3] is recorded as 60. Moreover, in data set [4], the off-target selectivity profile entry was “excellent highly selective profile”. Moreover, in data set [5] (0.1 and 0.5 mg/kg i.p., dizocilpine 0.15 mg/kg), the “dizocilpine-induced learning deficits, passive avoidance” value is listed as “significantly attenuated”. Moreover, the “beneficial effect in passive avoidance with NE-100 treatment” value in data set [5] (plus NE-100 at 3 mg/kg i.p.) is “prevented”. In addition, in data set [6] (0.5 mg/kg i.p. daily for 15 days from score 2, followed 80 days), the EAE global evolution result is “significantly reduced”. For the same molecule, the EAE course result in data set [6] (0.5 mg/kg p.o. daily for 15 days from score 2) is listed as “significant decrease”. In addition, in data set [6] (BD-1047 10 mg/kg i.p. 20 min before 7i), the “effect on EAE development after BD-1047 pretreatment” value is reported as “blocked”. Also, the second relapse entry in data set [6] (i.p., 0.5 and 1 mg/kg daily for 15 days) was “No second relapse”. Besides, in data set [6] (i.p., 0.5 and 1 mg/kg, more pronounced at 1 mg/kg), the “effect on clinical score during treatment (first relapse)” value is “visible from the first days of treatment”. For the same molecule, in data set [6] (orally treated animals), the “maximal clinical grade during the entire disease course” value is not above 2 grade. The “clinical grade reached during the 15 days of administration” value in data set [6] (p.o. 0.5 mg/kg) came out at 1 grade. For the same molecule, the “rebound effect after end of treatment” value in data set [6] (p.o., as in i.p. administration) is “No rebound effect”.
